“Also recorded” adds a separate entry of the source. Where two headings read alike, the source gives them in different places.

Data set [1] deals with WT LV9 L. donovani intramacrophage amastigotes. As to the kind of experiment: L. donovani intramacrophage amastigote assay. Type of data set: cell-based, Leishmania donovani. To be noted: for IC50: WT LV9, ± SD in Tables S5/S6, read-out: IC50 L. donovani intramacrophage amastigotes; for IC99 ± SD LV9 intramacrophage amastigotes / IC90: Table S6; for IC90: read-out: IC90 ± SD LV9 intramacrophage amastigotes.

Data set [2] in a line: Solubility observations (crystals in assay, insolubility in solvents). Type of data set: physicochemical. To be noted: for presence of crystals, concentration range / presence of crystals (asterisk mark): noted in L. donovani assay, Table S5; for solubility (observation): almost all types of solvent, even at very low concentrations.
Data set [3] has as its system Trypanosoma brucei brucei trypomastigotes, suramin-sensitive strain (Squib 427). The experiment in a line: T. b. brucei growth/viability assay (resazurin). Type of data set: cell-based. To be noted: for IC50: 3 days. On the procedure:
After 3 days, parasite growth was assessed fluorimetrically following the addition of resazurin. After 24 h at 37 °C, fluorescence was measured (λex = 550 nm, λem = 590 nm). The results were expressed as a percentage reduction in parasite growth/viability compared to control wells, and a 50% inhibitory concentration (IC50) was calculated.

Data set [4] relates to Trypanosoma cruzi (Tulahuen CL2 β-galactosidase) amastigotes in hMRC-5SV2 cells. As to the kind of experiment: T. cruzi intracellular amastigote assay (β-galactosidase/CPRG). Type of data set: cell-based. On the procedure:
A nifurtimox-sensitive strain (Tulahuen CL2 β-galactosidase) in human lung fibroblast hMRC-5SV2 cells was incubated for 7 days in 96-well plates with five concentrations of compound (64, 16, 4, 1, and 0.25 μM). The parasitic burden was evaluated through the activity of the enzyme β-galactosidase on a specific chlorophenol red ß-D-galactopyranoside (CPRG) substrate. Live parasites converted the yellow-orange CPRG substrate into the red chromophore chlorophenol red, yielding a dark-red solution, which could be quantitatively measured at 540 nm after 4 h of incubation at 37 °C. The results were expressed as a percentage reduction in parasite growth/viability compared to control wells, and an IC50 was calculated.

The subject of data set [5] is L. infantum (MHOM/MA(BE)/67) amastigotes in primary peritoneal mouse macrophages. As to the kind of experiment: L. infantum intramacrophage amastigote assay (microscopic burden). Type of data set: cell-based, Leishmania infantum. To be noted: 5 days, mouse macrophages as host. On the procedure: L. infantum (MHOM/MA(BE)/67 strain) amastigote were incubated for 5 days in 96-well plates with five concentrations of compound (64, 16, 4, 1, and 0.25 μM). Primary peritoneal mouse macrophages were used as host cells. Parasite burdens (i.e., the number of amastigotes per macrophage) were microscopically assessed. The results were expressed as a percentage reduction in parasite burden compared to untreated control wells, and an IC50 was calculated.

Data set [6] deals with human diploid embryonic lung fibroblast hMRC-5SV2 cells. The experiment in a line: in vitro. On the procedure:
(§1) The cytotoxicity of compounds was evaluated toward human diploid embryonic lung fibroblast hMRC-5SV2 cells, derived from fetal lung tissue and first described in 1970. hMRC-5SV2 cells were cultured in 96-well plates with five concentrations of the compound (64, 16, 4, 1, and 0.25 μM). After 3 days of incubation, the cell viability was assessed fluorimetrically after the addition of resazurin, and fluorescence was measured (λex = 550 nm, λem = 590 nm). The results were expressed as a percentage reduction in cell growth/viability compared to control wells, and a 50% cytotoxic concentration (CC50) was calculated. The reference cytotoxic drugs were tamoxifen or ivermectin. Additionally, toxicity toward mouse macrophages was qualitatively observed. Three concentrations were included (64, 16, and 4 µM), and the range of toxicity was ranked from the least toxic to the most toxic compound.

Data set [7] relates to L. donovani LV9 axenic amastigotes. The experiment in a line: L. donovani axenic amastigote assay (SYBR green I). Type of data set: cell-based, Leishmania donovani. To be noted: for IC50: LV9, read-out: IC50 ± SD L. donovani axenic amastigotes; for IC99 ± SD LV9 axenic amastigotes / IC90: Table S6; for IC90: read-out: IC90 ± SD LV9 axenic amastigotes. On the procedure:
L. donovani amastigote forms were suspended to yield 10^7 cells/mL. The final compound concentrations used were 100 µM, 10 µM, 1 µM, 500 nM, and 50 nM. Duplicates were used for each concentration. Cultures were incubated at 37 °C for 72 h in the dark and under a 5% CO2 atmosphere; then, the viability of the amastigotes was assessed using the SYBR® green I (Invitrogen, France) incorporation method. Parasite growth was determined by using SYBR® Green I, a dye with marked fluorescence enhancement upon contact with parasite DNA. Parasites were lysed following Direct PCReCell Genotyping without DNA isolation protocol (Euromedex, Souffelweyersheim, France). A total of […] of SYBR Green I was added to each well, and the contents were mixed. Fluorescence was measured with Mastercylcer® ep realplex (Eppendorf, Montesson, France). The fluorescence obtained was compared to those from the range obtained with different parasite densities.

A short description of the next data set: in vitro. To be noted: human, CC50 hMRC-5 (cytotoxicity). On the procedure: as §1
In the next data set the test system is murine macrophages. As to the kind of experiment: Qualitative toxicity toward mouse macrophages. The following applies: concentration at which toxicity was observed; 64, 16 and 4 µM tested. On the procedure:
as §1

[8] abbreviates: bracketed value after the intramacrophage IC50 (Table S5), Table S6.
The mark [9] stands for this setting: intracellular amastigotes, 7 days, read-out: IC50 T. cruzi intramacrophage amastigotes (converted).
Setting [10] is: Trypanosoma cruzi, TULAHUEN, 168 h, intracellular amastigotes, 7 days, read-out: IC50 T. cruzi intramacrophage amastigotes (converted).
Setting [11] is: Leishmania infantum, Macrophage, 120 h.

`O=C1CC(c2ccccc2)SC(c2ccccc2)C1` (racemic) [2a]: in data set [1], the IC50 is above 100 µM. Further, in data set [2], the “presence of crystals, concentration range” value was 6.25 to 200 µM. Besides, in the data set with macrophages (setting [8]), the “observed macrophage death / lysis observed at” value stood at 200 µM.

Consider `Cc1ccccc1C1CC(=O)CC(c2ccccc2C)S1` (racemic) [2b], for which the IC50 was above 64 µM in data set [3], at least 64 µM in data set [4] (setting [9]), 43.1 µM in data set [5] and 14.5 ± 1.9 µM in data set [1]. This compound yielded a CC50 in data set [6] above 64 µM. In addition, in data set [2], the “presence of crystals (asterisk mark)” value is on record as “** (presence of crystals at > 100 µM)”. Also, the “observed macrophage death / lysis observed at” value in the data set on macrophages (setting [8]) is above 50 µM.

Turning to `Cc1ccc(C2CC(=O)CC(c3ccc(C)cc3)S2)cc1` (racemic) [2c], the IC50 in [3] was 0.8 µM; in [4] (setting [9]) it was 3.7 µM; in data set [5], above 64 µM; in data set [1], 13.5 ± 2.8 µM. The CC50 in data set [6] came to 24.2 µM. For the same compound, the “presence of crystals (asterisk mark)” value in [2] is “** (presence of crystals at > 100 µM)”. The “observed macrophage death / lysis observed at” value in the data set with macrophages (setting [8]) came to 200 µM.

As to `O=C1CC(c2ccc(Cl)cc2)SC(c2ccc(Cl)cc2)C1` (racemic) [2f], the IC50 in [3] is 27.4 µM; in data set [4] (setting [9]), above 64 µM; in data set [5], 33.2 µM; in [1] it was 16.1 ± 1.4 µM. For the same compound, in data set [6], the CC50 is above 64 µM. Besides, in [2], the “presence of crystals (asterisk mark)” value is listed as “* (presence of crystals at > 50 µM)”. Further, the “observed macrophage death / lysis observed at” value in the data set with macrophages (setting [8]) was above 75 µM.

As for `CN(C)c1ccc([C@H]2CC(=O)C[C@H](c3ccc(N(C)C)cc3)S2)cc1` (racemic) [2u], the IC50 was 1.5 µM in [3]; 2.5 µM in data set [4] (setting [9]); 43.1 µM in data set [5]; 57.5 ± 10.2 µM in data set [7]; 4.5 ± 10 µM in [1]. In addition, half-maximal cytotoxicity in data set [6] (CC50) was put at 5 µM. The “IC99 ± SD LV9 axenic amastigotes” value in [7] is listed as 91.1 ± 16.2 µM. Besides, the IC90 in [7] came to 71.7 ± 12.7 µM; in data set [1] it was 5.6 ± 12.5 µM. The “IC99 ± SD LV9 intramacrophage amastigotes” value in data set [1] is on record as 7.1 ± 15.9 µM. Further, the “observed macrophage death / lysis observed at” value in the data set on macrophages (setting [8]) was 100 µM.

As for `COc1ccc(C2CC(=O)CC(c3ccc(OC)cc3)S2(=O)=O)cc1` (racemic) [4d, (±)-trans-2,6-Di-(p-anisyl)-4H-tetrahydrothiopyran-4-one 1,1-dioxide], the IC50 in [3] was 43.3 µM; in data set [4] (setting [10]), at least 64 µM; in data set [5] it was at least 64 µM; in data set [1] (Leishmania donovani) it was above 100 µM. In addition, the “anti-trypanosomal activity (IC50)” value in data set [3] (Trypanosoma (T. cruzi and T. b. brucei)) is “almost inactive; also recorded: completely inactive”. In addition, the CC50 at 3 days in the data set “in vitro” was at least 64 µM. Besides, in data set [2], the “solubility (observation)” value is reported as “Solubility issues; also recorded: insolubility”.

Take `O=C(/C=C/c1ccccc1)/C=C/c1ccccc1` [1a]: the IC50 in data set [3] (Trypanosoma brucei, 72 h) was 0.4 µM; in [4] (Trypanosoma cruzi, TULAHUEN, 168 h, read-out: IC50 T. cruzi intramacrophage amastigotes), 16 µM; in data set [5] (setting [11]) it was 20.3 µM; in data set [1] (Leishmania donovani) it was above 100 µM. The CC50 at 3 days in the data set “in vitro” stood at 52.9 µM. In addition, the “presence of crystals, concentration range” value in data set [2] was 12.5 to 200 µM. Moreover, in the data set with macrophages, the “observed macrophage death / lysis observed at” value came out at 200 µM.

In the case of `Cc1ccc(/C=C/C(=O)/C=C/c2ccc(C)cc2)cc1` [1c], the IC50 in [3] (Trypanosoma brucei, 72 h) was 9.3 µM; in data set [4] (setting [10]), 41.9 µM; in data set [5] (setting [11]), above 64 µM. Also, in “in vitro”, it took 32.5 µM to reach half-maximal cytotoxicity (CC50 at 3 days). Besides, the “presence of crystals, concentration range” value in [2] was 25 to 100 µM.

In the case of `O=C(/C=C/c1c(Cl)cccc1Cl)/C=C/c1c(Cl)cccc1Cl` [1h], the concentration for half-maximal inhibition (IC50) in data set [3] (Trypanosoma brucei, 72 h) was above 64 µM; in [4] (setting [10]), 39.5 µM; in data set [5] (setting [11]), 32.5 µM. The CC50 at 3 days in the data set “in vitro” was above 64 µM. For the same compound, in the data set with murine macrophages, the “Toxicity (T) observed toward murine macrophages” value is “T1 (T1 = 64)”. Besides, in [2], the “presence of crystals, concentration range” value was 0.8 to 200 µM. For the same compound, the “observed macrophage death / lysis observed at” value with macrophages was above 6.2 µM.

For `CN(C)c1ccc(/C=C/C(=O)/C=C/c2ccc(N(C)C)cc2)cc1` [1u], the IC50 in data set [3] (Trypanosoma brucei, 72 h) is 0.8 µM; in [4] (setting [10]), 36.9 µM; in data set [5] (setting [11]), above 64 µM; in [7] (Leishmania donovani), 8.7 ± 0.6 µM; in data set [1] (Leishmania donovani) it was 6.3 ± 0.8 µM. Besides, the CC50 at 3 days in the data set “in vitro” is 62.3 µM. The IC90 in [7] (Leishmania donovani) amounted to 64.2 ± 0.7 µM; in [1] (Leishmania donovani), 7.8 ± 1 µM. The “IC99 ± SD LV9 axenic amastigotes” value in data set [7] is listed as 567.3 ± 0.9 µM. Further, in data set [1], the “IC99 ± SD LV9 intramacrophage amastigotes” value was 9.9 ± 1.3 µM. Also, the “observed macrophage death / lysis observed at” value in the data set on macrophages amounted to 200 µM.

Turning to `COc1ccc(/C=C/C(=O)/C=C/c2ccccc2)cc1` [1’h], the IC50 in [1] is 17.4 ± 1.9 µM. Further, the “presence of crystals (asterisk mark)” value in [2] is on record as “** (presence of crystals at > 100 µM)”. Moreover, the “observed macrophage death / lysis observed at” value with macrophages (setting [8]) is listed as above 37.5 µM.

Turning to `COc1ccc(/C=C/C(=O)/C=C/c2ccc3ccccc3c2)cc1` [1’j], the IC50 in data set [1] was 58.2 ± 8 µM. Moreover, in data set [2], the “presence of crystals (asterisk mark)” value was “** (presence of crystals at > 100 µM)”. Besides, the “observed macrophage death / lysis observed at” value in the data set with macrophages (setting [8]) was above 150 µM.

As to `CN(C)c1ccc(/C=C/C(=O)/C=C/c2nccs2)cc1` [1’s], the IC50 in data set [3] was 0.4 µM; in [4] (setting [9]) it was 11 µM; in data set [5], 38 µM; in [1] it was 11.5 ± 0.6 µM. In data set [6], this compound came in with a CC50 above 64 µM. Further, in data set [2], the “presence of crystals (asterisk mark)” value is “* (presence of crystals at > 50 µM)”. For the same compound, the “observed macrophage death / lysis observed at” value in the data set on macrophages (setting [8]) is listed as above 37.5 µM.

In the case of `COc1ccc(C2CC(=O)CC(c3ccc(OC)cc3)S2(=O)=O)cc1` (stereo not drawn) [4′d, cis-2,6-Di-(p-anisyl)-4H-tetrahydrothiopyran-4-one 1,1-dioxide], the IC50 in data set [3] was 2.1 µM; in [4] (setting [9]) it was 34.4 µM; in [5], 20.3 µM. Further, in data set [6] (human, 3 days), the 50% cytotoxic concentration (CC50) is at least 64 µM. Moreover, the “Toxicity (T) observed toward murine macrophages” value in the data set with murine macrophages is on record as “T1 (T1 = 64)”. Moreover, the “solubility (observation)” value in data set [2] is on record as “insolubility”; in [2] (listed as 4’d), “Solubility issues”.

For the origin of these results see PMC11013284, “Chemoselective Synthesis and Anti-Kinetoplastidal Properties of 2,6-Diaryl-4H-tetrahydro-thiopyran-4-one S-Oxides: Their Interplay in a Cascade of Redox Reactions from Diarylideneacetones” (Molecules, 2024).
